Results on 10 compounds are retold here after patent US9073857B2, “Aripiprazole type I microcrystal, aripiprazole solid preparations, and preparation method” (SHANGHAI ZHONGXI PHARMACEUTICAL CORPORATION, priority 2011, dated 2015).

One data set can be described thus: Particle size by laser particle size distribution analyzer. The format is physicochemical. Conditions: Effect Example 2; microcrystals of the Examples. On the procedure:
Measure the particle size of aripiprazole in the sample by the following methods, and compare the particle size of aripiprazole in different prescriptions and under different operating conditions.
Test Instrument: BT˜9300S laser particle size distribution analyzer (Dandong Baxter technology Co., Ltd); BT˜800 automatic loop sampling system.
Test conditions: the medium of the loop sampling system is water, with the volume of about 570 ml, and the centrifugal pump speed is 1600 rpm.
Test Method: add appropriate amount of the samples into the loop sampling system, and make the absorbance of the system up to 15%±10, turn on the ultrasonic dispersion for 3 min, continuous sample for 6 times, and gain the average particle size.
1. Dissolve 10 g aripiprazole into aqueous ethanol solution containing hydrochloric acid (the molar ratio of hydrochloric acid to aripiprazole is 1.1, the concentration of the aqueous ethanol solution is 95%, the mass of the aqueous ethanol solution is 30 g), quickly add the 10% aqueous sodium hydroxide (the molar ratio of sodium hydroxide to hydrochloric acid is 1.01) all at once while stirring. Stir for 5 min then add 100 g water, stir again for 5 min, filter the precipitated crystal, wash twice with 20 g water each time and filter each time, dry the crystal at 80° C. for 4 hours, then obtain the aripiprazole microcrystal.
2. Dissolve 10 g aripiprazole into aqueous ethanol solution with hydrochloric acid (the molar ratio of hydrochloric acid to aripiprazole is 1.02), quickly add the 10% aqueous sodium hydroxide (the molar ratio of sodium hydroxide to hydrochloric acid is 1.0) all at once while stirring (with stirring linear speed of 160 m/min). Stir for 5 min then add 100 g water, stir again for 5 min, filter the precipitated crystal, wash twice with 20 g water each time and filter each time, dry the crystals at 80° C. for 4 hours, then obtain the aripiprazole microcrystal.
3. Dissolve 10 g aripiprazole into aqueous ethanol solution with hydrochloric acid (2.3 g 36% hydrochloric acid, 28.5 g anhydrous ethanol. The concentration of the aqueous ethanol solution is 95%), add the 10% aqueous sodium hydroxide (the molar ratio of sodium hydroxide to hydrochloric acid is 1.0) while stirring (with stirring linear speed of 160 m/min). Stir for 5 min then add 100 g water, stir again for 5 min, filter the precipitated crystal, wash twice with 20 g water each time and filter each time, dry the crystal at 80° C. for 4 hours, then obtain the aripiprazole microcrystal.
As to `O=C1CCc2ccc(OCCCCN3CCN(c4cccc(Cl)c4Cl)CC3)cc2N1` [Example 4, aripiprazole], the “particle size D10” value stood at 1.18 micron, the “particle size D50” value was found to be 8.78 micron, the “particle size D90” value was found to be 24.78 micron and the “particle size D[4,3]” value came out at 10.99 micron.
For `O=C1CCc2ccc(OCCCCN3CCN(c4cccc(Cl)c4Cl)CC3)cc2N1` [Example 5, aripiprazole], in that order: 0.74 micron, 4.75 micron, 16.34 micron and 6.79 micron.
For `O=C1CCc2ccc(OCCCCN3CCN(c4cccc(Cl)c4Cl)CC3)cc2N1` [Contrastive Example 1, aripiprazole], in that order: 9.31 micron, 29.85 micron, 60.39 micron and 32.85 micron.
Take `O=C1CCc2ccc(OCCCCN3CCN(c4cccc(Cl)c4Cl)CC3)cc2N1` [Example 23, aripiprazole]: the “particle size D10” value turned out to be 1.52 micron, the “particle size D50” value is recorded as 9.67 micron, the “particle size D90” value was 32.17 micron and the “particle size D[4,3]” value is 13.42 micron.
For `O=C1CCc2ccc(OCCCCN3CCN(c4cccc(Cl)c4Cl)CC3)cc2N1` [Example 24, aripiprazole], in that order: 1.00 micron, 3.93 micron, 8.7 micron and 4.73 micron.
For `O=C1CCc2ccc(OCCCCN3CCN(c4cccc(Cl)c4Cl)CC3)cc2N1` [Example 3, aripiprazole], in that order: 1.43 micron, 11.64 micron, 34.65 micron and 15.64 micron.
For `O=C1CCc2ccc(OCCCCN3CCN(c4cccc(Cl)c4Cl)CC3)cc2N1` [Example 2, aripiprazole], in that order: 1.85 micron, 10.91 micron, 29.82 micron and 14.17 micron.

The data set is the same for the next values; noted with them: starting aripiprazole microcrystals of Example 1.
In the case of `O=C1CCc2ccc(OCCCCN3CCN(c4cccc(Cl)c4Cl)CC3)cc2N1` [aripiprazole microcrystals, aripiprazole], the “D[4,3]” value is 32.85 mircon.

Experiment in a further data set: not given
Conditions: within 45 minutes; disclosed at the Japan and South Korea Analytical Chemistry Annual Meeting in 1998; cited from earlier work.
Consider `O=C1CCc2ccc(OCCCCN3CCN(c4cccc(Cl)c4Cl)CC3)cc2N1` [aripiprazole type I crystal, aripiprazole], for which the dissolution rate entry was “less than 70%”.

Experiment in a further data set: not given
Conditions: crushed by the universal grinder through mechanical pulverization; cited from earlier work.
With `O=C1CCc2ccc(OCCCCN3CCN(c4cccc(Cl)c4Cl)CC3)cc2N1` [aripiprazole, 7-[4-[4-(2,3-dichlorophenyl)-1-piperazinyl]butoxy]-3,4-dihydro-2(1H)-quinolinone], the average particle size result is reported as “about 100 micron”.
